From patent US6875760B2 (Novo Nordisk A/S, priority 1999, dated 2005)

The molecules below were run against T1, human glucagon receptor (Homo sapiens, UniProt P47871) (assay: Glucagon Binding Assay (III)). Conditions: BHK cell membranes, WGA SPA beads, 125I-glucagon; read-out: Glu Bd Assay (III) IC50.
T1 construct: expressed in transfected cells; host or cells: BHK (baby hamster kidney) cells
How it was run: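 Non-specific binding was set with 500 nM glucagon in this SPA-type binding assay using WGA beads. The receptor source was a membrane preparation, kept on ice or at 4 °C, from BHK cells transfected with the human receptor. Scintillation counts were taken after 4 hours of shaking and 8–48 hours of settling.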

T1 sequence (P47871 26-477): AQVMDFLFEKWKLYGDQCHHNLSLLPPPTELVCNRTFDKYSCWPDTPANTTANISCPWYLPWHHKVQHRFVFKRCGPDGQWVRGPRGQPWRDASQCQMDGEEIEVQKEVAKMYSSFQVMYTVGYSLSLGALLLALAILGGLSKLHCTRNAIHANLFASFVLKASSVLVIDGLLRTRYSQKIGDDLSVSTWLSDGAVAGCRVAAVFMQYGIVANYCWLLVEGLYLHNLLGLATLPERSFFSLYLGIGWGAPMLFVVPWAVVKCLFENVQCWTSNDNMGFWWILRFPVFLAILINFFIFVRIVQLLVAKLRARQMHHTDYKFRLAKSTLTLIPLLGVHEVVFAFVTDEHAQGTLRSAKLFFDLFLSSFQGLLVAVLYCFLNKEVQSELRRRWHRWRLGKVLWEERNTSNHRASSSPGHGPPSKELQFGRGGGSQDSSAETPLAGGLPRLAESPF

Row | Compound | IC50 [nM]
1 | CC(C)(C)[C@H]1CC[C@H](N(Cc2ccc(C(=O)NCCC(=O)O)cc2)C(=O)Nc2cc(Cl)c(Cl)c(Cl)c2)CC1 [Example 238, 3-{4-[1-(trans-4-tert-Butylcyclohexyl)-3-(3,4,5-trichlorophenyl)ureidomethyl]benzoylamino}propionic acid] | 103
2 | CCCCNS(=O)(=O)c1ccc(NC(=O)N(Cc2ccc(C(=O)NCCC(=O)O)cc2)[C@H]2CC[C@H](C(C)(C)C)CC2)cc1 [Example 239, 3-{4-[1-(trans-4-tert-Butylcyclohexyl)-3-(4-butylsulfamoylphenyl)ureidomethyl]benzoylamino}propionic acid] | 1890
3 | O=C(O)CCNC(=O)c1ccc(CN(C(=O)Nc2ccc(OC(F)(F)F)cc2)C2CCC(Oc3ccccc3)CC2)cc1 (stereo not shown) [Example 244, 3-{4-[1-(4-Phenoxycyclohexyl)-3-(4-trifluoromethoxyphenyl)ureidomethyl]benzoylamino}propionic acid] | 528
4 | CCOC(=O)N1CCC(NC(=O)N(Cc2ccc(C(=O)NCCC(=O)O)cc2)[C@H]2CC[C@H](C(C)(C)C)CC2)CC1 [Example 245, 4-{3-(trans-4-tert-Butylcyclohexyl)-3-[4-(2-carboxyethylcarbamoyl)benzyl]ureido}piperidine-1-carboxylic acid ethyl ester] | 4050
5 | CC(C)(C)C1CCC(N(Cc2ccc(C(=O)NCCC(=O)O)cc2)C(=O)Nc2ccc(Oc3ccccc3)nc2)CC1 (stereo not shown) [Example 246, 3-{4-[1-(4-tert-Butylcyclohexyl)-3-(6-phenoxypyridin-3-yl)ureidomethyl]benzoylamino}propionic acid] | 146
6 | O=C(O)CCNC(=O)c1ccc(CN(C(=O)Nc2ccc(OC(F)(F)F)cc2)C2CCC(=C3CC3)CC2)cc1 (stereo not shown) [Example 248, 3-{4-[1-(4-Cyclopropylidenecyclohexyl)-3-(4-trifluoromethoxyphenyl)ureidomethyl]benzoylamino}propionic acid] | 571
7 | O=C(O)CCNC(=O)c1ccc(CN(C(=O)Nc2ccc(OC(F)(F)F)cc2)C2CCC(C3CC3)CC2)cc1 (stereo not shown) [Example 249, 3-{4-[1-(4-Cyclopropylcyclohexyl)-3-(4-trifluoromethoxyphenyl)ureidomethyl]benzoylamino}propionic acid] | 320
8 | CC(C)(C)[C@H]1CC[C@H](N(Cc2ccc(C(=O)NCCC(=O)O)cc2)C(=O)Nc2ccc(OC(F)(F)F)c(C#N)c2)CC1 [Example 251, 3-{4-[1-(trans-4-tert-Butylcyclohexyl)-3-(3-cyano-4-trifluoromethoxyphenyl)ureidomethyl]benzoylamino}propionic acid] | 56
9 | CC(C)(C)C1CCC(N(Cc2ccc(C(=O)NCCC(=O)O)cc2)C(=O)Nc2cccc(S(C)(=O)=O)c2)CC1 (stereo not shown) [Example 252, 3-{4-[1-(4-tert-Butylcyclohexyl)-3-(3-methylsulfonylphenyl)ureidomethyl]benzoylamino}propionic acid] | 1320
10 | CC(C)(C)[C@H]1CC[C@H](N(Cc2ccc(C(=O)NCCC(=O)O)cc2)C(=O)Nc2cc(-c3ccccc3)n[nH]2)CC1 [Example 253, 3-{4-[1-(4-trans-tert-Butylcyclohexyl)-3-(5-Phenyl-2H-pyrazol-3-yl)ureidomethyl]benzoylamino}propionic acid] | 1170
11 | CCOC(=O)c1ccc2nc(NC(=O)N(Cc3ccc(C(=O)NCCC(=O)O)cc3)[C@H]3CC[C@H](C(C)(C)C)CC3)sc2c1 [Example 254, 2-{3-(4-trans-tert-Butylcyclohexyl)-3-[4-(2-carboxyethylcarbamoyl)benzyl]ureido}benzothiazole-6-carboxylic acid ethyl ester] | 266
12 | N#Cc1cccc(NC(=O)N(Cc2ccc(C(=O)Nc3nn[nH]n3)cc2)c2ccc(C3CCCCC3)cc2)c1 [Example 256, 4-[3-(3-Cyanophenyl)-1-(4-cyclohexylphenyl)ureidomethyl]-N-(2H-tetrazol-5-yl)benzamide] | 75
13 | CC(C)(C)c1ccc(N(Cc2ccc(C(=O)Nc3nn[nH]n3)cc2)C(=O)Nc2ccc3ncsc3c2)cc1 [Example 257, 4-[3-Benzothiazol-6-yl-1-(4-tert-butylphenyl)ureidomethyl]-N-(2H-tetrazol-5-yl)benzamide] | 684
14 | O=C(Nc1nn[nH]n1)c1ccc(CN(C(=O)Nc2ccc3c(c2)S(=O)(=O)CC3)c2ccc(C3CCCCC3)cc2)cc1 [Example 258, 4-[1-(4-Cyclohexylphenyl)-3-(1,1-dioxo-2,3-dihydro-1H-1-benzo[b]thiophen-6-yl)ureidomethyl]-N-(2H-tetrazol-5-yl)benzamide] | 773
15 | CC(C)(C)c1ccc(N(Cc2ccc(C(=O)Nc3nn[nH]n3)cc2)C(=O)Nc2ccc3c(c2)S(=O)(=O)CC3)cc1 [Example 259, 4-[1-(4-tert-Butylphenyl)-3-(1,1-dioxo-2,3-dihydro-1H-benzo[b]thiophen-6-yl)ureidomethyl]-N-(2H-tetrazol-5-yl)benzamide] | 1690

Same assay, conditions: Glu Bd Assay (III) IC50 (nM), BHK cell membranes, WGA SPA beads, 125I-glucagon

Row | Compound | IC50 [nM]
16 | CCN(CC)C(=O)c1ccc(NC(=O)N(Cc2ccc(C(=O)NCCC(=O)O)cc2)[C@H]2CC[C@H](C(C)(C)C)CC2)cc1 [Example 240, 3-{4-[1-(trans-4-tert-Butylcyclohexyl)-3-(4-diethylcarbamoylphenyl)ureidomethyl]benzoylamino}propionic acid] | 2430
17 | CC(C)(C)[C@H]1CC[C@H](N(Cc2ccc(C(=O)NCCC(=O)O)cc2)C(=O)Nc2ccc(OCC3CC3)cc2)CC1 [Example 241, 3-{4-[1-(trans-4-tert-Butylcyclohexyl)-3-(4-cyclopropylmethoxyphenyl)ureidomethyl]benzoylamino}propionic acid] | 140
18 | CC(C)(C)[C@H]1CC[C@H](N(Cc2ccc(C(=O)NCCC(=O)O)cc2)C(=O)Nc2ccc(OC(F)(F)F)cc2Br)CC1 [Example 242, 3-{4-[3-(2-Bromo-4-trifluoromethoxyphenyl)-1-(trans-4-tert-butylcyclohexyl)ureidomethyl]benzoylamino}propionic acid] | 153
19 | CC(C)(C)[C@H]1CC[C@H](N(Cc2ccc(C(=O)NCCC(=O)O)cc2)C(=O)Nc2ccccc2)CC1 [Example 243, 3-{4-[1-(trans-4-tert-Butylcyclohexyl)-3-phenylureidomethyl]benzoylamino}propionic acid] | 1090
20 | CC(C)(C)[C@H]1CC[C@H](N(Cc2ccc(C(=O)NCCC(=O)O)cc2)C(=O)Nc2ccc(C#N)cc2OC(F)(F)F)CC1 [Example 247, 3-{4-[1-(trans-4-tert-Butylcyclohexyl)-3-(4-cyano-2-trifluoromethoxyphenyl)ureidomethyl]benzoylamino}propionic acid] | 215
21 | CC(C)(C)[C@H]1CC[C@H](N(Cc2ccc(C(=O)NCCC(=O)O)cc2)C(=O)Nc2ccc(OCC3CC3)cc2C(F)(F)F)CC1 [Example 250, 3-{4-[1-(trans-4-tert-Butylcyclohexyl)-3-(4-cyclopropylmethoxy-2-trifluoromethylphenyl)ureidomethyl]benzoylamino}propionic acid] | 182
22 | CC(C)(C)[C@H]1CC[C@H](N(Cc2ccc(C(=O)NCCC(=O)O)cc2)C(=O)Nc2cc(Cl)cc(Cl)c2)CC1 [Example 255, 3-{4-[1-(trans-4-tert-Butylcyclohexyl)-3-(3,5-dichlorophenyl)ureidomethyl]benzoylamino}propionic acid] | 80
